Reference: a melting point compilation (Tetko et al.; mined from patent text by program, amines drawn as free bases though some values may be those of a salt)

First: CC1(C)CC(=O)C(C(=O)NS(=O)(=O)c2ccccc2)C(=O)C1
Second: O=S(=O)(c1ccccc1)c1ncc(F)cn1
The melting point of the first is lower: 101 to 103 °C for the first, 105 °C for the second.

First: COC(C)=CC(=O)Nc1cccc(C)c1
Second: O=C(O)CNC(=O)Nc1cccc([N+](=O)[O-])c1
The melting point of the first is lower: 106 °C for the first, 217 to 218 °C for the second.

First: O=c1[nH]c2ncc(-c3ccc(F)cc3)nc2c(O)c1-c1c(F)cc(F)cc1F
Second: Fc1cc(F)c(-c2c(Cl)nc3nc(SCc4ccccc4)nn3c2Cl)c(F)c1
The melting point of the first is higher: 285 to 288 °C for the first, 106 °C for the second.

First: CN1CCn2nc(Nc3cc(Cl)nn(COCC[Si](C)(C)C)c3=O)cc2C1
Second: CC(C)c1[nH]nc2c1C(=O)c1c(NC(=O)NN3CCN(C)CC3)cccc1-2
The melting point of the first is lower: 68 to 69 °C for the first, 231 to 233 °C for the second.

First: COc1c(O)ccc(C(=O)c2ccccc2)c1[N+](=O)[O-]
Second: COc1c(OC)c(OC(C)=O)c2cc(OCCc3ccccc3)ccc2c1OC(C)=O
The melting point of the first is higher: 169 to 171 °C for the first, 70 to 71 °C for the second.

Compared with `Cn1ccc2cc(N3Cc4c(cccc4[N+](=O)[O-])C3=O)ccc21`, `Cn1ccc2cc(N3Cc4ccc(OCC(F)(F)F)cc4C3=O)ccc21` is lower in melting point: 267 to 271 °C for the first, 182 to 188 °C for the second.

Compared with `CC(=O)C(Cc1ccccc1)Nc1nc2ccc(C(C)C)cc2s1` (stereo unspecified), `FC(F)(F)Oc1ccc2nc(NC(=S)Nc3ccccc3)sc2c1` is higher in melting point: 107 to 110 °C for the first, 234 °C for the second.

First: Cn1c(=O)ccc2cc(CBr)ccc21
Second: Fc1ccc2sc(-c3ccc(CBr)cc3)nc2c1
The melting point of the first is lower: 99 to 100 °C for the first, 138 to 141 °C for the second.

Compared with `CC1(C)c2ccccc2C(C)(C)C1(S)CC(=O)O`, `CC(C)CCCC(C)NC(=O)CCC(O)c1ccccc1` (stereo unspecified) is lower in melting point: 159 to 161 °C for the first, 72 to 89 °C for the second.

First: CC(C)(Oc1ccc(OCc2noc(-c3ccc(C(C)(C)C)cc3)n2)cc1)C(=O)O
Second: COCCn1nc(-c2ccc(C(C)(C)C)cc2)cc1C(=O)NCc1ccc(OC(C)(C)C(=O)O)c(C)c1
The melting point of the first is higher: 143 °C for the first, 112 °C for the second.

First: CC(=O)NC=Nc1ccc2nnc(-c3ncc([N+](=O)[O-])n3C)n2n1
Second: Cn1c(C(F)(F)F)ccc(-c2cc([N+](=O)[O-])c(Cl)cc2F)c1=O
The melting point of the first is higher: 237 to 241 °C for the first, 139 to 140 °C for the second.

First: C=CC(=O)Oc1c(Cc2cc(C)cc(C(C)(C)C)c2O)cc(C)cc1C(C)(C)C
Second: CC(C)(C)c1cc(-c2ccc(NC(=O)[C@H]3CCCC[C@H]3C(=O)O)cc2)cc(C(C)(C)C)c1O (relative stereo)
The melting point of the first is lower: 132 to 134 °C for the first, 217 to 220 °C for the second.

First: O=[N+]([O-])c1ccc(C2CCNCC2)cc1
Second: COC(=O)C(OC)Oc1ccc(C2CCN(c3ccncc3)CC2)cc1 (stereo unspecified)
The melting point of the first is lower: 90 to 92 °C for the first, 127 to 129 °C for the second.

Compared with `Cc1nnc(Sc2c(C)cccc2C)o1`, `Cc1ccc(F)cc1C1CC(=O)c2c(C)ccnc2C1` (stereo unspecified) is higher in melting point: 53 to 54 °C for the first, 113 to 114 °C for the second.

First: CCOC(=O)C(=O)Nc1cc(=O)c2ccccc2o1
Second: CCCCn1c(C)c(C)cc(NC(=O)OCc2ccccc2)c1=O
The melting point of the first is higher: 167 to 169 °C for the first, 65 to 66 °C for the second.

First: OC(CSc1ncnc2[nH]ncc12)CN1CCN(C(c2ccc(Cl)cc2)c2ccc(Cl)cc2)CC1 (stereo unspecified)
Second: N#CCc1ccc2ncc(C(=O)NCc3ccc(Cl)cc3)c(O)c2c1
The melting point of the first is lower: 115 to 118 °C for the first, 244 to 246 °C for the second.

Compared with `CSCN1C(=O)c2cccnc2N(CSC)c2cc(Cl)ccc21`, `O=C1c2ccccc2C(=O)N1CCSc1nccc(NC(=S)NCC(F)(F)F)n1` is higher in melting point: 181 to 182 °C for the first, 238 to 241 °C for the second.

First: COC[C@H](C)Oc1cc(N(C)S(=O)(=O)c2ccccn2)c2[nH]c(C3=NCC(CN4CCS(=O)CC4)S3)cc2c1 (stereo partly specified)
Second: CNC(=O)c1ccccc1Nc1nc(Nc2c(OC)ccc3c2C(=O)N(C)CCC3)ncc1Cl
The melting point of the first is lower: 175 to 176 °C for the first, 185 to 187 °C for the second.

First: CN(C)CCOC(c1ccccc1)c1ccc(C(=O)NCCCCn2cnc3c(N)nc4ccccc4c32)cc1 (stereo unspecified)
Second: CC(=O)Nc1cc(C(O)CN(Cc2ccccc2)C(C)Cc2ccc(O)cc2)ccc1OCc1ccccc1 (stereo unspecified)
The melting point of the first is lower: 110 to 114 °C for the first, 141 to 143 °C for the second.

Compared with `c1ccc2c(c1)CCSO2`, `N#CN1c2ccccc2CC(O)c2ccccc21` (stereo unspecified) is lower in melting point: 119 to 120 °C for the first, 117 to 118 °C for the second.

Compared with `O=S(=O)(NCC(F)(F)F)c1ccc(Nc2nc(OCC3CCCCC3)c3nc[nH]c3n2)cc1`, `O=C(Nc1ccc(-n2nc(C(F)(F)F)cc2C2CC2)cc1)c1ccc2nccnc2c1` is lower in melting point: 223 to 224 °C for the first, 205 to 209 °C for the second.

Compared with `CCCNC(=O)N1Cc2cccn2-c2ccsc2C1=O`, `Cc1c(CO)cccc1NC(=O)CN1C[C@@H](C)N(c2ncnc3sccc23)[C@@H](C)C1` is higher in melting point: 120 °C for the first, 203 to 204 °C for the second.

Compared with `CCC1(CC)c2ccccc2C(CC)(CC)N1OC(COC(C)(C)C)c1ccccc1` (stereo unspecified), `COc1ccccc1Oc1c(NS(=O)(=O)c2ccc(C(C)(C)C)cc2)nc(SC)nc1OCCO` is higher in melting point: 85 to 86 °C for the first, 139 to 140 °C for the second.

First: CCCCCc1nc2c(N)nc3ccccc3c2s1
Second: CCCCc1nc2c(N)nc3ccc(O)cc3c2n1CCCCNC(=O)N1CCOCC1
The melting point of the first is lower: 119 to 121 °C for the first, 177 to 182 °C for the second.

First: COc1cc(NC=CS(=O)(=O)F)c(C(C)=O)cc1OC
Second: CS(=O)(=O)Oc1cc(N)c(F)cc1Cl
The melting point of the first is higher: 142 to 146 °C for the first, 79 to 80 °C for the second.

First: CN1C2CCC(N3C(=O)c4ccccc4C3=O)C1CC2 (stereo unspecified)
Second: CN1C(=O)CCC2(CCC(=O)c3ccccc32)C1=O (stereo unspecified)
The melting point of the first is higher: 145 to 147 °C for the first, 136 to 138 °C for the second.

First: NCCc1cccc(N2C(=O)N(c3c(Cl)cccc3Cl)Cc3cnc(Nc4ccccc4)nc32)c1
Second: O=C(Nc1ccc(Br)cn1)C1=C(O)c2ccccc2N(c2ccccc2)C1
The melting point of the first is higher: 208 °C for the first, 153 to 154 °C for the second.

First: O=C1CC(c2ccccc2)NC(=O)C1C(=O)c1ccccc1F (stereo unspecified)
Second: O=C(c1ccccc1)N1CCN(CCCN2C(=O)c3ccccc3C2=O)CC1
The melting point of the first is higher: 115 to 116 °C for the first, 100 to 104 °C for the second.

First: Cc1ccc2c(c1)C(=NNC(=N)N)CC2
Second: CCOc1ccc(C2=NNC(=O)CC2)c(OCC)c1
The melting point of the first is higher: > 250 °C for the first, 148 to 150 °C for the second.

First: CCOC(=O)c1ccc(NC(=O)CCc2ccc(C)cc2)cc1
Second: CCOC(=O)c1ccc2n1Cc1ccccc1N(C(=O)c1ccc(NC(=O)c3ccc(Cl)cc3Cl)c(C)c1)C2
The melting point of the first is lower: 154 to 155 °C for the first, 174 to 184 °C for the second.

Compared with `CCCCCCCCCCCCOCCOc1ccc(C(=O)OC)cc1`, `COC(=O)C(=O)c1ccc(Cl)cc1` is higher in melting point: 40 to 42 °C for the first, 56 to 57 °C for the second.

First: O=C(O)c1ccc(CF)cc1
Second: CCc1ccc(N/C=C/[N+](=O)[O-])c(C(=O)O)c1
The melting point of the first is higher: 192 to 194 °C for the first, 190 to 191 °C for the second.

First: CCC(=O)Oc1ccc(N=c2scc(-c3ccc(Cl)c(S(=O)(=O)N(C)C)c3)n2C)cc1
Second: Cc1c(-c2ccccc2)oc2c(S(=O)(=O)N(C)CCO)cccc2c1=O
The melting point of the first is higher: 155 to 159 °C for the first, 146 to 147 °C for the second.

First: O=c1ccc(C(F)(F)F)cn1Cc1ccccc1NCCO
Second: O=C(O)c1cccc(-c2cc(-c3ccc(C(F)(F)F)cc3)no2)c1
The melting point of the first is lower: 114 to 115 °C for the first, 272 to 273 °C for the second.

First: CC(SC1COC(c2ccc(C(=O)Nc3ccc(C#N)cc3)cc2F)OC1)C(O)(Cn1cncn1)c1ccc(F)cc1F (stereo unspecified)
Second: O=C1Nc2cccc(-c3cccc(NC(=O)c4ccc([N+](=O)[O-])cc4)c3)c2/C1=C/c1ccc[nH]1
The melting point of the first is lower: 110 °C for the first, 157 to 159 °C for the second.

Compared with `CCCOc1ccc(C#N)cc1O`, `CC(C)(C#N)c1ccc(Cl)nc1` is lower in melting point: 99 °C for the first, 63 to 65 °C for the second.

Compared with `CCOC(=O)c1cc(OCC)c(C(=O)OCC)c(OCC)c1`, `CCOC(=O)Cc1n[nH]c(=O)c2cc(Cl)c(Cl)cc12` is higher in melting point: 142 to 144 °C for the first, 202 to 203 °C for the second.

Compared with `CCOCc1nc2c(N)nc3cccnc3c2n1CC(C)(C)NC(=O)NC(C)C`, `C#CCN(Cc1cc2c(=O)n(C)c(CN(CC)CC)nc2cc1Cl)c1ccc(C(=O)OC(C)(C)C)cc1` is lower in melting point: 172 to 174 °C for the first, 112 to 113 °C for the second.

First: CON=Cc1ncn2c1[C@@H]1CCCN1C(=O)c1c(Cl)cccc1-2
Second: Cc1cc(-n2ccnc2)c2cccc(OCc3c(Cl)ccc(S(=O)(=O)N4CCC[C@H]4C(=O)NCCc4cccnc4)c3Cl)c2n1
The melting point of the first is higher: 194 to 195 °C for the first, 117 °C for the second.

First: C[C@@H](O)Cn1cnc2c(N)ncnc21
Second: COc1ccc(-c2nnc3c4ccccc4c(OCCO)nn23)cc1
The melting point of the first is lower: 188 to 190 °C for the first, 252 to 254 °C for the second.

First: O=C(O)C=CC(F)(F)F
Second: Cc1c(C=CC(=O)O)cccc1[N+](=O)[O-]
The melting point of the first is lower: 95 to 100 °C for the first, 222 °C for the second.

First: CC1CN(C)CCC1(O)c1cc2ccccc2o1 (stereo unspecified)
Second: c1ccc(CN2CCC(Cc3nc4ccccc4[nH]3)CC2)cc1
The melting point of the first is lower: 128 to 130 °C for the first, 222 °C for the second.

Compared with `O=C(NC(=S)c1c(Cl)cccc1Cl)Nc1ccc(Cl)c(Cl)c1`, `Cc1cc(C(=O)c2[nH]c3cc(Cl)ccc3c2NC(=O)CC(C)C)ccc1Cl` is higher in melting point: 168 °C for the first, 202 to 203 °C for the second.

First: CCC(=O)Nc1c(C#N)cnn1-c1nc(NCc2ccccc2)c(C(F)(F)F)cc1Cl
Second: O=C(NC(CO)C(=O)c1ccc(Cl)cc1)C1CCN(C(=O)OCc2ccccc2)CC1 (stereo unspecified)
The melting point of the first is higher: 139 to 142 °C for the first, 116 to 118 °C for the second.

First: Cc1ccc(-c2cn(C)c(-c3ccc4c(c3)C(C)(C)c3ccccc3-4)n2)s1
Second: c1ccc(COc2ccc(-c3nc(COc4ccc(CCCn5ccnc5)cc4)co3)cc2)cc1
The melting point of the first is higher: 188 to 191 °C for the first, 133 to 134 °C for the second.

First: COc1ccccc1N1CCN([C@H]2CC[C@H](c3ccc(-c4ccccc4)cc3)CC2)CC1
Second: Cc1[nH]c2ccccc2c1CCC(=O)N1CCN(c2ccccc2)CC1
The melting point of the first is higher: 220 to 225 °C for the first, 120 to 121 °C for the second.

First: Cc1cc(O)nc(C(Cl)(Cl)Cl)n1
Second: CC1CCc2cc(F)cc3c(=O)c(C(=O)Cl)cn1c23 (stereo unspecified)
The melting point of the first is lower: 173 to 174 °C for the first, 183 to 186 °C for the second.

Compared with `O=C1CCC(=O)C1C(=O)CCc1ccc2c(c1)OCO2`, `O=C1NCCC[C@@H]1NS(=O)(=O)c1cccc(F)c1` is higher in melting point: 93 to 94 °C for the first, 159 to 160 °C for the second.

Compared with `COc1cc2c(c(OC)c1OC)C(C)(C)CC(C=O)=C2`, `CCCC1(C(C)C)NC(=S)N(c2cc(Cl)cc(Cl)c2)C1=O` (stereo unspecified) is lower in melting point: 178 to 180 °C for the first, 160 °C for the second.

First: CC(C)C(=O)OC[C@@]1(N=[N+]=[N-])O[C@@H](n2ccc(N)nc2=O)[C@@H](OC(=O)C(C)C)[C@@H]1OC(=O)C(C)C
Second: O=C1N[C@@H](CC2CCCCC2)[C@H]1O
The melting point of the first is higher: 167 to 169 °C for the first, 147 to 148 °C for the second.

Work on `CCOCn1c(-c2cc(F)cc(F)c2)c(C#N)c(Br)c1C(F)(F)F` yielded a melting point of 74 to 75 °C.
